Data from ChEMBL document CHEMBL4190286, “Modulating the Serotonin Receptor Spectrum of Pulicatin Natural Products” (J Nat Prod, 2017).

These molecules were tested against 5-hydroxytryptamine receptor 2B (Homo sapiens, UniProt P41595) (assay: Displacement of [3H]-LSD from human 5-HT2B receptor expressed in HEK cells after 90 mins by microbeta scintillation counting analysis).
Assay type: cell-based

5-hydroxytryptamine receptor 2B, sequence (P41595 whole entry): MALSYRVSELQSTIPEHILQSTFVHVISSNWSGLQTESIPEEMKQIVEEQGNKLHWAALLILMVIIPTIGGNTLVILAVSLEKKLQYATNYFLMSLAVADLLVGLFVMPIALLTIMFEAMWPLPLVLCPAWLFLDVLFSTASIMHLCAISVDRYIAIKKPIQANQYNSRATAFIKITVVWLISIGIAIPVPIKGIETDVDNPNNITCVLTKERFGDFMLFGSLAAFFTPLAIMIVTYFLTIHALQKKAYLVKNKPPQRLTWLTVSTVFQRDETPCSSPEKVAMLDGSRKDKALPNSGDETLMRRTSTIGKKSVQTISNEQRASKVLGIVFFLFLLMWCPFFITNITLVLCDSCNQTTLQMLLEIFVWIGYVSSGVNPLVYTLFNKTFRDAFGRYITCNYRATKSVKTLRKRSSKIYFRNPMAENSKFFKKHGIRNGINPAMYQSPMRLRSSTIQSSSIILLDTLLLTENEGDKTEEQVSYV

Row | Structure (SMILES) | Ki [µM]
1 | C[C@H]1SC(c2ccc(-c3ccccc3)cc2)=N[C@H]1Cc1c[nH]cn1 (relative stereo) | 1.4
2 | C[C@@H]1SC(c2ccsc2)=N[C@H]1CO (relative stereo) | 1.5
3 | C[C@H]1SC(c2ccccc2O)=N[C@@H]1CO (racemic) | 0.62
4 | C[C@@H]1SC(c2ccccc2)=N[C@H]1CO (relative stereo) | 3
5 | C[C@@H]1SC(c2c[nH]c3ccccc23)=N[C@H]1CO (relative stereo) | 2.4

The molecules below were run against 5-hydroxytryptamine receptor 1B (Homo sapiens, UniProt P28222) (assay: Displacement of [3H]5-CT from human 5-HT1B receptor expressed in HEK cells after 90 mins by microbeta scintillation counting analysis).
Assay type: cell-based

5-hydroxytryptamine receptor 1B, sequence (P28222 whole entry): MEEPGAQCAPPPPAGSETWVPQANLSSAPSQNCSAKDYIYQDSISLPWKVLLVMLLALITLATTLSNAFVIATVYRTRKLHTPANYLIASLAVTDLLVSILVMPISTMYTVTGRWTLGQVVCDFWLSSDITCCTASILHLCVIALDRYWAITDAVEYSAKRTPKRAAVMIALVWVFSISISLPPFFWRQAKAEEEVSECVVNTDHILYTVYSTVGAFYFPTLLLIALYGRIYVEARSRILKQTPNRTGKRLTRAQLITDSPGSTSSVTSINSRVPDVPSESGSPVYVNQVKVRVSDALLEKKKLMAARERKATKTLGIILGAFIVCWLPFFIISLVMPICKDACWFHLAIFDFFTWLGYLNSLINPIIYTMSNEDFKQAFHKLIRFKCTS

Row | Structure (SMILES) | Ki [µM]
6 | C[C@@H]1SC(c2ccsc2)=N[C@H]1CO (relative stereo) | > 10
7 | C[C@@H]1SC(c2ccccc2)=N[C@H]1CO (relative stereo) | > 10
8 | C[C@@H]1SC(c2c[nH]c3ccccc23)=N[C@H]1CO (relative stereo) | > 10

The molecules below were run against 5-hydroxytryptamine receptor 1D (Homo sapiens, UniProt P28221) (assay: Displacement of [3H]5-CT from human 5-HT1D receptor expressed in HEKT cells after 90 mins by microbeta scintillation counting analysis).
Assay type: cell-based

5-hydroxytryptamine receptor 1D, sequence (P28221 whole entry): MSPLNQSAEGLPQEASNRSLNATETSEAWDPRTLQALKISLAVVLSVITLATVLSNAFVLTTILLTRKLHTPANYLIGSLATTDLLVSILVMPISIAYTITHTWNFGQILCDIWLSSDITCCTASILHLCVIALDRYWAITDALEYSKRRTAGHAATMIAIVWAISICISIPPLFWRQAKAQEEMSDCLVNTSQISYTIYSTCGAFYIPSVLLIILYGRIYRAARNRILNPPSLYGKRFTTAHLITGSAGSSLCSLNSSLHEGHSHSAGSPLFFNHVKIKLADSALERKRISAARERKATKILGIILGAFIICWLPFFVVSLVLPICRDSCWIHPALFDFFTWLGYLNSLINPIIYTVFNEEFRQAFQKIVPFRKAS

Row | Structure (SMILES) | Ki [µM]
9 | C[C@@H]1SC(c2ccsc2)=N[C@H]1CO (relative stereo) | 8.6
10 | C[C@@H]1SC(c2ccccc2)=N[C@H]1CO (relative stereo) | 5.3
11 | C[C@@H]1SC(c2c[nH]c3ccccc23)=N[C@H]1CO (relative stereo) | 2.7

The molecules below were run against 5-hydroxytryptamine receptor 1E (Homo sapiens, UniProt P28566) (assay: Displacement of [3H]5-HT from human 5-HT1E receptor expressed in HEK cells after 90 mins by microbeta scintillation counting analysis).
Assay type: cell-based

5-hydroxytryptamine receptor 1E, sequence (P28566 whole entry): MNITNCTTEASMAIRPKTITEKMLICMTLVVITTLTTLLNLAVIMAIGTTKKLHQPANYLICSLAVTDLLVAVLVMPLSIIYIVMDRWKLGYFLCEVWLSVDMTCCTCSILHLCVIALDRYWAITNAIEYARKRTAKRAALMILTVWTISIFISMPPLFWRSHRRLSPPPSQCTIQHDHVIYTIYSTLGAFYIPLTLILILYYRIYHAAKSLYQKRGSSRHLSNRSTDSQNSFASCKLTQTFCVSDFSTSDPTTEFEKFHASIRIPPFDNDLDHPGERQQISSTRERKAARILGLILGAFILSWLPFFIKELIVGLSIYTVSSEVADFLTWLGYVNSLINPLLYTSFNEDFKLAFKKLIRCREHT

Row | Structure (SMILES) | Ki [µM]
12 | C[C@@H]1SC(c2ccsc2)=N[C@H]1CO (relative stereo) | > 10
13 | C[C@@H]1SC(c2ccccc2)=N[C@H]1CO (relative stereo) | > 10
14 | C[C@@H]1SC(c2c[nH]c3ccccc23)=N[C@H]1CO (relative stereo) | > 10

These molecules were tested against 5-hydroxytryptamine receptor 2A (Homo sapiens, UniProt P28223) (assay: Displacement of [3H]Ketanserin from 5-HT2A (unknown origin) receptor after 90 mins by microbeta scintillation counting analysis).
5-hydroxytryptamine receptor 2A, sequence (P28223 whole entry): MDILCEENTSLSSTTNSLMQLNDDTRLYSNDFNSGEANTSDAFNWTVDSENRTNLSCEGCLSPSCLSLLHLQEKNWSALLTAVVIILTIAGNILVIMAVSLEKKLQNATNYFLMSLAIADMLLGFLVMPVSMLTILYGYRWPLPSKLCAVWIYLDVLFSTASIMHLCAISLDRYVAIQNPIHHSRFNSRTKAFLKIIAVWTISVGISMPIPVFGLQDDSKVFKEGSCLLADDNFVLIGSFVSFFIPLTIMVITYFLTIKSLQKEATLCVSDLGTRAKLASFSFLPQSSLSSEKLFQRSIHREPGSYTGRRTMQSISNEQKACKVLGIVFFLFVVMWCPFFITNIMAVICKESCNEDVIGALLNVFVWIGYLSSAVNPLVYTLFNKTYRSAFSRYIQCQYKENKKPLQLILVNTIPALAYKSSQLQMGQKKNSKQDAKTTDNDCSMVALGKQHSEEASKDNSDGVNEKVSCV

Row | Structure (SMILES) | Ki [µM]
15 | C[C@H]1SC(c2ccc(-c3ccccc3)cc2)=N[C@H]1Cc1c[nH]cn1 (relative stereo) | 0.31
16 | C[C@@H]1SC(c2ccsc2)=N[C@H]1CO (relative stereo) | > 10
17 | C[C@@H]1SC(c2ccccc2)=N[C@H]1CO (relative stereo) | > 10
18 | C[C@@H]1SC(c2c[nH]c3ccccc23)=N[C@H]1CO (relative stereo) | > 10

Each molecule was assayed against T1, 5-hydroxytryptamine receptor 2C (Homo sapiens, UniProt P28335) (assay: Displacement of [3H]-Mesulergine from human 5-HT2C receptor expressed in HEKT cells after 90 mins by microbeta scintillation counting analysis).
T1 sequence (P28335 whole entry): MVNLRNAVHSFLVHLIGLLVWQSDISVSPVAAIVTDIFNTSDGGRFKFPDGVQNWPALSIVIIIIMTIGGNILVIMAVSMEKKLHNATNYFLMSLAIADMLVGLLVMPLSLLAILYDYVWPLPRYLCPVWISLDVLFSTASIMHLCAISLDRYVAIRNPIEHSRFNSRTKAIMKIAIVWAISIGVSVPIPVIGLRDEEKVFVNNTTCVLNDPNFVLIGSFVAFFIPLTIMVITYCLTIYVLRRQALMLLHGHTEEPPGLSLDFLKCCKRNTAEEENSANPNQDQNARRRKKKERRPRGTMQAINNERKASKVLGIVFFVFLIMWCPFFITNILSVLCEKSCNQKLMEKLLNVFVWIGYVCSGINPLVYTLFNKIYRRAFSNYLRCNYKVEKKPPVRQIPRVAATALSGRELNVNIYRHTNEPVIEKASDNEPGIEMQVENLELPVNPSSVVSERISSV
Assay type: cell-based

Row | Structure (SMILES) | Ki [µM]
19 | C[C@H]1SC(c2ccc(-c3ccccc3)cc2)=N[C@H]1Cc1c[nH]cn1 (relative stereo) | 2.3
20 | C[C@@H]1SC(c2ccsc2)=N[C@H]1CO (relative stereo) | > 10
21 | C[C@H]1SC(c2ccccc2O)=N[C@@H]1CO (racemic) | 2.2
22 | C[C@@H]1SC(c2ccccc2)=N[C@H]1CO (relative stereo) | 35
23 | C[C@@H]1SC(c2c[nH]c3ccccc23)=N[C@H]1CO (relative stereo) | 5.4

The molecules below were run against T2, 5-hydroxytryptamine receptor 3A (Homo sapiens, UniProt P46098) (assay: Displacement of [3H]-GR65630 from human 5-HT3 receptor expressed in HEKT cells after 90 mins by microbeta scintillation counting analysis).
T2 sequence (P46098 whole entry): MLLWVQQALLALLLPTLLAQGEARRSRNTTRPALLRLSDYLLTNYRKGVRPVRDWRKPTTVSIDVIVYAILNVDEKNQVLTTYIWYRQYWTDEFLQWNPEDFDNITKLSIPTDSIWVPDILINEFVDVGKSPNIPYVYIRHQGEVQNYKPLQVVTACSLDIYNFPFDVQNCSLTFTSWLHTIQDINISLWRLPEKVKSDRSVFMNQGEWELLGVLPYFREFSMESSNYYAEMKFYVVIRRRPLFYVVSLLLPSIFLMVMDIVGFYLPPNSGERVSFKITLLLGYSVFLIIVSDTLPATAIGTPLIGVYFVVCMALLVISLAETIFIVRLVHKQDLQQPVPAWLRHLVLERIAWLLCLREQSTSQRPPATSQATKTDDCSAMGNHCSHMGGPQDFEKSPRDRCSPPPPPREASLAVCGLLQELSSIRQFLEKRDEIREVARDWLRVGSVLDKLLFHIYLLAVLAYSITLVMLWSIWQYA
Assay type: cell-based

Row | Structure (SMILES) | Ki [µM]
24 | C[C@@H]1SC(c2ccsc2)=N[C@H]1CO (relative stereo) | 6.7
25 | C[C@@H]1SC(c2ccccc2)=N[C@H]1CO (relative stereo) | 6.7
26 | C[C@@H]1SC(c2c[nH]c3ccccc23)=N[C@H]1CO (relative stereo) | 2.8

Each molecule was assayed against 5-hydroxytryptamine receptor 5A (Homo sapiens, UniProt P47898) (assay: Displacement of [3H]-LSD from human 5-HT5A receptor expressed in Flp-In CHO cells after 90 mins by microbeta scintillation counting analysis).
Assay type: cell-based

5-hydroxytryptamine receptor 5A, sequence (P47898 whole entry): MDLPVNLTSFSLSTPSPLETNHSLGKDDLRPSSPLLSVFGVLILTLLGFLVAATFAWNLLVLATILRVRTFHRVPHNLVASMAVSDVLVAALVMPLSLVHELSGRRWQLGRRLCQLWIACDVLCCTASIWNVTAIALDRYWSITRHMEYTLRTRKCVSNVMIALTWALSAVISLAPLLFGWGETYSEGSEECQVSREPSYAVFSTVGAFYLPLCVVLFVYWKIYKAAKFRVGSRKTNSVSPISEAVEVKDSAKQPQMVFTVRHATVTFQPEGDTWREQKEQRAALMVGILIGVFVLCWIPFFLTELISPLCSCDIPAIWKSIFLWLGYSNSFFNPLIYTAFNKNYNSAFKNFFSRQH

Row | Structure (SMILES) | Ki [µM]
27 | C[C@@H]1SC(c2ccsc2)=N[C@H]1CO (relative stereo) | 8.2
28 | C[C@@H]1SC(c2ccccc2)=N[C@H]1CO (relative stereo) | > 10
29 | C[C@@H]1SC(c2c[nH]c3ccccc23)=N[C@H]1CO (relative stereo) | > 10

The molecules below were run against 5-hydroxytryptamine receptor 6 (Homo sapiens, UniProt P50406) (assay: Displacement of [3H]-LSD from human 5-HT6 receptor expressed in HEK cells after 90 mins by microbeta scintillation counting analysis).
Assay type: cell-based

5-hydroxytryptamine receptor 6, sequence (P50406 whole entry): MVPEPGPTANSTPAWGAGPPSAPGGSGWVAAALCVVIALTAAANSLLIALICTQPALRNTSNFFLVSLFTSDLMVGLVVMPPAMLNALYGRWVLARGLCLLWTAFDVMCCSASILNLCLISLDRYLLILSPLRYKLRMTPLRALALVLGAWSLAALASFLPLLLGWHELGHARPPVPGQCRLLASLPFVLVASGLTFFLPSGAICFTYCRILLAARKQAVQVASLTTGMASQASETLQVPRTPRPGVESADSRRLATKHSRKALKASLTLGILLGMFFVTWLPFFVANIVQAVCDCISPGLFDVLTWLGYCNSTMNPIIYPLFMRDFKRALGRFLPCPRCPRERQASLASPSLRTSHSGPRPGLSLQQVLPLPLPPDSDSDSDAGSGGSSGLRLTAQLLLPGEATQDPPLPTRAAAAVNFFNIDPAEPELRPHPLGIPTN

Row | Structure (SMILES) | Ki [µM]
30 | C[C@@H]1SC(c2ccsc2)=N[C@H]1CO (relative stereo) | > 10
31 | C[C@@H]1SC(c2ccccc2)=N[C@H]1CO (relative stereo) | > 10
32 | C[C@@H]1SC(c2c[nH]c3ccccc23)=N[C@H]1CO (relative stereo) | > 10

The molecules below were run against 5-hydroxytryptamine receptor 7 (Homo sapiens, UniProt P34969) (assay: Displacement of [3H]-LSD from human 5-HT7A receptor expressed in HEK cells after 90 mins by microbeta scintillation counting analysis).
Assay type: cell-based

5-hydroxytryptamine receptor 7, sequence (P34969 whole entry): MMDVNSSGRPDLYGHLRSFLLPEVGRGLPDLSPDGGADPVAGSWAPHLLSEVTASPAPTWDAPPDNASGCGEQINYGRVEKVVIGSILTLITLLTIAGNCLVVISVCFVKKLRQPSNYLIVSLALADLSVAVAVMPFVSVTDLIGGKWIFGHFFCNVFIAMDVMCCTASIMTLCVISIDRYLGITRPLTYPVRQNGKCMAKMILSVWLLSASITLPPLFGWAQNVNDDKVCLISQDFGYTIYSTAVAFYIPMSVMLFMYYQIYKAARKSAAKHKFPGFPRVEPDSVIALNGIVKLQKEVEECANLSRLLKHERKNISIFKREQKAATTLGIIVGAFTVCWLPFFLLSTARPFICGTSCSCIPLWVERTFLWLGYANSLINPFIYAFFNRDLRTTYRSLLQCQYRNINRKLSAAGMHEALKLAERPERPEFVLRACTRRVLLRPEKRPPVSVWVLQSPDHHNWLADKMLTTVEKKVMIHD

Row | Structure (SMILES) | Ki [µM]
33 | C[C@@H]1SC(c2ccsc2)=N[C@H]1CO (relative stereo) | > 10
34 | C[C@@H]1SC(c2ccccc2)=N[C@H]1CO (relative stereo) | > 10
35 | C[C@@H]1SC(c2c[nH]c3ccccc23)=N[C@H]1CO (relative stereo) | > 10
